# From PMC5413848, “Optimization of intestinal microsomal preparation in the rat: A systematic approach to assess the influence of various methodologies on metabolic activity and scaling factors” (Biopharmaceutics & Drug Disposition, 2017)
# Where two headings read alike, the source gives them in different places.
# How the values were obtained:
# [1] = Substrate depletion in commercial Han Wistar rat intestinal microsomes, combined or individual CYP and UGT cofactors; settings: for microsomal CLint at 1 μM: male, Han Wistar, rat, pH 7.4, CL int,u, Commercial Han Wistar pool
# Description: (§1) Microsomes prepared previously via the optimized method (preparation method 8) were combined to form pool 1 (n = 9 rats). A second set of three preparations was combined to form pool 2 (n = 9 rats). Intestinal microsomes were also prepared from intestinal tissue flash‐frozen in tubes on arrival in the laboratory and kept at −80°C until thawing on ice on the morning of preparation, (n = 3 occasions of n = 3 samples). In addition, for comparative purposes microsomes were also prepared from scraped intestinal tissues. Microsomes were prepared after cutting along the length of intestine and gently scraping the intestinal epithelial with a glass microscope slide (n = 1 occasion, n = 3 samples). Commercially available pooled intestinal microsomes were also used as a comparator to those produced in‐house. […] The microsomes were stored at −80°C prior to experiments.
# (§2) Midazolam and 7‐hydroxycoumarin were both incubated at 1 mg/ml and 0.5 mg/ml. The microsomes were incubated on ice with alamethacin (50 μg/mg) for 15 min. […] The samples were quenched with ice cold acetonitrile (3:1 quench to sample) containing the internal standard (AZ1). The total incubation time was 40 min. Quenched samples were stored overnight at −20°C. The following day, the samples were diluted with 200 μl UPH2O, and spun at 3000 rpm (Sorvall legend RT centrifuge) for 15 min, and 200 μl of supernatant taken for analysis.
# [2] = Nonspecific protein binding in rat intestinal microsomes (96-well micro-equilibrium dialysis)
# Description: Nonspecific protein binding was determined in microsomes (1 mg/ml) using high throughput 96‐well micro‐equilibrium dialysis methodology (HTDialysis, LLC, Gales Ferry, CT, USA). These experiments used dialysis membrane strips with 12–14 kDa molecular mass cut‐off (HTDialysis). The microsomes were constituted in 0.1 M phosphate buffer (pH 7.4). The final concentrations of the test compounds was 1 μM. Microsomes containing the test compound were aliquoted into donor wells in triplicate, and buffer placed in the acceptor wells. The plate was incubated at 37°C and left to equilibrate on a plate shaker (450 rpm) for 4 h. Samples from both the acceptor and donor sides of the membrane were then transferred to 96‐well plates and quenched in acetonitrile containing internal standard (AZ1). The same sample preparation and LC–MS/MS methodology was used as described for the microsomal incubations. Compound MS transitions and retention times are reported in Supplemental material Table 3. Fuinc was calculated as the ratio of acceptor to donor both normalized for internal standard as described previously 41. Correction for protein binding for depletion experiments undertaken at 0.5 mg/ml were made using Equation (4).
# (4) fumic,2=1/[P]mic,2/Pmic,1×1−fumic,1/fumic,1+1
# where mic,1 denotes 1 mg/ml and mic,2 is 0.5 mg/ml.
# [3] = In vitro-in vivo extrapolation of rat intestinal unbound intrinsic clearance (CL int,u,gut); format: in vitro ADME; settings: for CL int,u,gut, Combined in-house pools: mean of pool 1 and pool 2 CL int,u and scaling factors; for CL int,u,gut, Pool 1 Mean: pool 1, pool specific scaling factors; for CL int,u,gut, Pool 1 Mean / CL int,u,gut, Pool 2 Mean: threshold 0.01 l/h; for CL int,u,gut, Pool 2 Mean: pool 2, pool specific scaling factors
# Description: The CL int,u values were scaled to give CL int,u,gut using scaling factors for the corresponding microsomal pool (Eq. (5)). The use of scalars from the mean of both pools was also investigated, and was also used for scaling of commercial microsome CL int,u data.
# (5) CLint,u,G=CLuint⋅MPPGI⋅Intestine Segment Weight
# [4] = in vitro; settings: for microsomal CLint at 1 μM: Han-Wistar, rat, in-house combined cofactors
# Description: as §1
# The microsomes prepared from the final optimized preparation method (method 8) were measured for CYP content on the day of preparation prior to storage. These microsomes (n = 3 samples prepared on n = 3 separate occasions) were subsequently thawed on ice and pooled for pool 1. The pool 1 microsomes were then assayed for testosterone and 4‐NP metabolite formation. Additional intestinal microsomes were created using the identical methodology with the same number of rat intestinal samples (n = 3 samples prepared on n = 3 occasions) and assayed for testosterone and 4‐NP metabolite formation as well as for CYP content on the day of preparation before storage. The microsomes from this second set of preparations were then thawed and pooled to form pool 2.
# as §2
# [5] = commercial Han Wistar microsomes, individual cofactors
# [6] = CYP cofactors, 1 mg/ml, 1 μM compound, CYP cofactors only
# [7] = Combined cofactors, 1 mg/ml, 1 μM compound, combined CYP and UGT cofactors
# [8] = UGT cofactors, 1 mg/ml, 1 μM compound, UGT cofactors only
# [9] = microsomes, pH 7.4, CL int,u, Pool 1
# [10] = microsomes, pH 7.4, CL int,u, Pool 2
# [11] = rat intestinal microsomes 1 mg/ml, compound 1 μM
# [12] = rat intestinal microsomes, in-house pool 1, pH 7.4, CL int,u, Pool 1, pool 1, 1 mg/ml, 1 μM compound, CYP and UGT cofactors
structure (smiles),measurement,setting,value
O=c1ccc2ccc(O)cc2o1 [7‐Hydroxycoumarin],Main route of elimination (CYP vs UGT cofactors),[1]; [5],glucuronidation
same,microsomal CLint at 1 μM,[1]; [6],0.9 µL/min/mg
same,microsomal CLint at 1 μM,[1]; [7],272 µL/min/mg
same,microsomal CLint at 1 μM,[1]; [8],327 µL/min/mg
same,Predicted protein binding at 0.5 mg/ml from data measured at 1 mg/ml,[2],1.00
same,Microsomal binding,"[2]; rat, 4 h, 1 μM, pH 7.4",0%
same,fuinc,"[2]; rat, 4 h, 1 μM, pH 7.4",1.00
same,"CL int,u,gut, Mean Han Wistar commercial microsomes",[3],0.07 L/h
same,microsomal CLint at 1 μM,[4]; [9],196 µL/min/mg
same,microsomal CLint at 1 μM,[4]; [10],264 µL/min/mg
CN(C)CCC=C1c2ccccc2CCc2ccccc21 [Amitriptyline],Main route of elimination (CYP vs UGT cofactors),[1]; [5],comparable
same,"Agreement of additive individual cofactor CL int,u with combined cofactor CL int,u","[1]; commercial microsomes, eight compounds",outside 2‐fold range
same,microsomal CLint at 1 μM,[1]; [6],5.3 µL/min/mg
same,microsomal CLint at 1 μM,[1]; [7],23.8 µL/min/mg
same,microsomal CLint at 1 μM,[1]; [8],3 µL/min/mg
same,fuinc,[2]; [11],0.20
same,"CL int,u,gut, Combined in-house pools",[3],0.01 L/h
same,"CL int,u,gut, Pool 1 Mean",[3],0.01 L/h
same,microsomal CLint at 1 μM,[4]; [12],24.3 µL/min/mg
same,microsomal CLint at 1 μM,"[4]; rat intestinal microsomes, in-house pool 2, pH 7.4, CL int,u, Pool 2, pool 2, 1 mg/ml, 1 μM compound, CYP and UGT cofactors",19.9 µL/min/mg
CC(C)NCC(O)COc1ccc(COCCOC(C)C)cc1 (stereo not drawn) [Bisporolol],fuinc,[2]; [11],0.89
same,"CL int,u,gut, Combined in-house pools",[3],0.02 L/h
same,"CL int,u,gut, Pool 1 Mean",[3],0.01 L/h
same,"CL int,u,gut, Pool 2 Mean",[3],0.03 L/h
same,"CL int,u, in-house combined cofactors, Pool 1","[4]; pool 1, 1 mg/ml, 1 μM compound, CYP and UGT cofactors",5.4 µL/min/mg
same,"CL int,u, in-house combined cofactors, Pool 2","[4]; pool 2, 1 mg/ml, 1 μM compound, CYP and UGT cofactors",< 0.1 µL/min/mg
CCCCNc1cc(C(=O)O)cc(S(N)(=O)=O)c1Oc1ccccc1 [Bumetanide],fuinc,"[2]; rat, 4 h, 1 μM, pH 7.4",0.92
O=C1CC2(CCCC2)CC(=O)N1CCCCN1CCN(c2ncccn2)CC1 [Buspirone],microsomal CLint at 1 μM,"[4]; microsomes, pH 7.4, CL int,u, Pool 1, pool 1, 1 mg/ml, 1 μM compound, CYP and UGT cofactors",3.2 µL/min/mg
same,microsomal CLint at 1 μM,"[4]; microsomes, pH 7.4, CL int,u, Pool 2, pool 2, 1 mg/ml, 1 μM compound, CYP and UGT cofactors",1.4 µL/min/mg
O=C(O)Cc1ccccc1Nc1c(Cl)cccc1Cl [Diclofenac],fuinc,"[2]; rat, 4 h, 1 μM, pH 7.4",0.98
COc1ccc([C@@H]2Sc3ccccc3N(CCN(C)C)C(=O)[C@@H]2OC(C)=O)cc1 [Diltiazem],fuinc,"[2]; rat, 4 h, 1 μM, pH 7.4",0.85
same,microsomal CLint at 1 μM,[4]; [9],21.8 µL/min/mg
same,microsomal CLint at 1 μM,[4]; [10],26.7 µL/min/mg
COc1ccc2c(c1)c(CC(=O)O)c(C)n2C(=O)c1ccc(Cl)cc1 [Indomethacin],fuinc,"[2]; rat, 4 h, 1 μM, pH 7.4",0.88
same,"CL int,u,gut, Mean Han Wistar commercial microsomes",[3],0.22 L/h
same,microsomal CLint at 1 μM,[4]; [9],48.9 µL/min/mg
same,microsomal CLint at 1 μM,[4]; [10],62.4 µL/min/mg
CC(C)Oc1ccc2c(=O)c(-c3ccccc3)coc2c1 [Ipriflavone],Main route of elimination (CYP vs UGT cofactors),[1],CYP mediated metabolism
same,microsomal CLint at 1 μM,"[1]; microsomes, CYP cofactors",59.1 µL/min/mg
same,microsomal CLint at 1 μM,"[1]; microsomes, Combined cofactors",72 µL/min/mg
same,microsomal CLint at 1 μM,"[1]; microsomes, UGT cofactors",7.3 µL/min/mg
same,Predicted protein binding at 0.5 mg/ml from data measured at 1 mg/ml,"[2]; rat, 4 h, 1 μM, pH 7.4",0.43
same,fuinc,"[2]; rat, 4 h, 1 μM, pH 7.4",0.28
same,"CL int,u,gut, Mean Han Wistar commercial microsomes",[3],0.05 L/h
same,microsomal CLint at 1 μM,[4]; [9],495 µL/min/mg
same,microsomal CLint at 1 μM,[4]; [10],416 µL/min/mg
CCCCC1=NC2(CCCC2)C(=O)N1Cc1ccc(-c2ccccc2-c2nnn[nH]2)cc1 [Irbesartan],Main route of elimination (CYP vs UGT cofactors),[1]; [5],glucuronidation
same,microsomal CLint at 1 μM,[1]; [6],1.5 µL/min/mg
same,microsomal CLint at 1 μM,[1]; [7],15.2 µL/min/mg
same,microsomal CLint at 1 μM,[1]; [8],9.4 µL/min/mg
same,fuinc,"[2]; rat, 4 h, 1 μM, pH 7.4",0.79
same,"CL int,u,gut, Mean Han Wistar commercial microsomes",[3],0.03 L/h
same,microsomal CLint at 1 μM,[4]; [9],31.9 µL/min/mg
same,microsomal CLint at 1 μM,[4]; [10],35.9 µL/min/mg
CCCCc1nc(Cl)c(CO)n1Cc1ccc(-c2ccccc2-c2nn[nH]n2)cc1 [Losartan],Main route of elimination (CYP vs UGT cofactors),[1]; [5],glucuronidation
same,microsomal CLint at 1 μM,[1]; [6],0.1 µL/min/mg
same,microsomal CLint at 1 μM,[1]; [7],10 µL/min/mg
same,microsomal CLint at 1 μM,[1]; [8],9 µL/min/mg
same,fuinc,"[2]; rat, 4 h, 1 μM, pH 7.4",0.87
same,"CL int,u,gut, Mean Han Wistar commercial microsomes",[3],0.04 L/h
same,microsomal CLint at 1 μM,[4]; [9],34.8 µL/min/mg
same,microsomal CLint at 1 μM,[4]; [10],14.8 µL/min/mg
COc1ccc2[nH]c([S+]([O-])Cc3ncc(C)c(OC)c3C)nc2c1 (stereo not drawn) [Omeprazole],fuinc,[2]; [11],0.90
same,"CL int,u,gut, Combined in-house pools",[3],0.01 L/h
same,"CL int,u,gut, Pool 1 Mean",[3],0.01 L/h
same,"CL int,u,gut, Pool 2 Mean",[3],0.01 L/h
same,microsomal CLint at 1 μM,[4]; [12],7.6 µL/min/mg
CN1CCN(CC(=O)N2c3ccccc3C(=O)Nc3cccnc32)CC1 [Pirenzepine],Microsomal binding,"[2]; rat, 4 h, 1 μM, pH 7.4",0%
same,fuinc,"[2]; rat, 4 h, 1 μM, pH 7.4",1.00
same,"CL int,u,gut, Mean Han Wistar commercial microsomes",[3],3.21 L/h
same,microsomal CLint at 1 μM,[4]; [9],3.9 µL/min/mg
same,microsomal CLint at 1 μM,[4]; [10],2.7 µL/min/mg
O=C(c1ccc(OCCN2CCCCC2)cc1)c1c(-c2ccc(O)cc2)sc2cc(O)ccc12 [Raloxifene],fuinc,"[2]; rat, 4 h, 1 μM, pH 7.4",0.06
CCCc1nn(C)c2c(=O)[nH]c(-c3cc(S(=O)(=O)N4CCN(C)CC4)ccc3OCC)nc12 [Sildenafil],fuinc,"[2]; rat, 4 h, 1 μM, pH 7.4",0.73
same,microsomal CLint at 1 μM,[4]; [9],23.8 µL/min/mg
same,microsomal CLint at 1 μM,[4]; [10],18.4 µL/min/mg
CCC(C)(C)C(=O)O[C@H]1C[C@@H](C)C=C2C=C[C@H](C)[C@H](CC[C@@H]3C[C@@H](O)CC(=O)O3)[C@H]21 [Simvastatin],fuinc,[2]; [11],0.93
same,"CL int,u,gut, Combined in-house pools",[3],1.38 L/h
same,"CL int,u,gut, Pool 1 Mean",[3],1.08 L/h
same,"CL int,u,gut, Pool 2 Mean",[3],1.57 L/h
C=CC[C@@H]1/C=C(\C)C[C@H](C)C[C@H](OC)[C@H]2O[C@@](O)(C(=O)C(=O)N3CCCC[C@H]3C(=O)O[C@H](/C(C)=C/[C@@H]3CC[C@@H](O)[C@H](OC)C3)[C@H](C)[C@@H](O)CC1=O)[C@H](C)C[C@@H]2OC [Tacrolimus],fuinc,[2]; [11],0.32
same,Predicted protein binding at 0.5 mg/ml from data measured at 1 mg/ml,"[2]; rat, 4 h, 1 μM, pH 7.4",0.48
same,"CL int,u,gut, Combined in-house pools",[3],59.22 L/h
same,"CL int,u,gut, Pool 1 Mean",[3],37.77 L/h
same,"CL int,u,gut, Pool 2 Mean",[3],77.09 L/h
same,microsomal CLint at 1 μM,"[4]; rat intestinal microsomes, in-house pool 1, pH 7.4, CL int,u, Pool 1, pool 1, incubated at 0.5 mg/ml (footnote b), 1 μM compound",465 µL/min/mg
same,microsomal CLint at 1 μM,"[4]; rat intestinal microsomes, in-house pool 2, pH 7.4, CL int,u, Pool 2, pool 2, incubated at 0.5 mg/ml (footnote b), 1 μM compound",413 µL/min/mg
